The results in this text go back to ChEMBL document CHEMBL5291721, “A preclinical secondary pharmacology resource illuminates target-adverse drug reaction associations of marketed drugs” (Nat Commun, 2023).

One experiment has as its target T1, Progesterone receptor (Homo sapiens, UniProt P06401).
T1 sequence (P06401 whole entry): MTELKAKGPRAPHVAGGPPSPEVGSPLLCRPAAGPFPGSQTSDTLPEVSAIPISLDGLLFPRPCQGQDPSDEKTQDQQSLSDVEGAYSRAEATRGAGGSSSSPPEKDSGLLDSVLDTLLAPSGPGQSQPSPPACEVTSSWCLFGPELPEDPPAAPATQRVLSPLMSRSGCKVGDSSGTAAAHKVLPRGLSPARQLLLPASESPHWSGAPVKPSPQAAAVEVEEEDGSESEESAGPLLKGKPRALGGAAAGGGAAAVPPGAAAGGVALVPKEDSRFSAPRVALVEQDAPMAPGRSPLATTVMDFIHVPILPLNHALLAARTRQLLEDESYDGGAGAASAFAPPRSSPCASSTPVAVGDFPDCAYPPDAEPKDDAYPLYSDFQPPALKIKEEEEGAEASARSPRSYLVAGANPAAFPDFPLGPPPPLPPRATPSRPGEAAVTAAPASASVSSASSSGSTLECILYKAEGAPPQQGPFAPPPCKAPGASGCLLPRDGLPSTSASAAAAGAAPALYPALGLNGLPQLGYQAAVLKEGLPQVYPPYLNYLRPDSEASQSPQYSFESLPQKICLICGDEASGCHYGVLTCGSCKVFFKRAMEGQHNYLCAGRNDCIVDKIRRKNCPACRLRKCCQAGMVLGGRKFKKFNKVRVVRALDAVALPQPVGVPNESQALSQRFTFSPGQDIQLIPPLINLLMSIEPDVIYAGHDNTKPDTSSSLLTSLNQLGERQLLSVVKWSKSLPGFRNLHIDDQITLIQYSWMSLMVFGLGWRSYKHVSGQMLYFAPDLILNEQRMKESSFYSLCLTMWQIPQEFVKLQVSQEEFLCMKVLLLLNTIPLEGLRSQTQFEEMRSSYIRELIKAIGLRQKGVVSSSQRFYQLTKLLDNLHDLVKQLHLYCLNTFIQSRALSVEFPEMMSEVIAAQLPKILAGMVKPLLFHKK

Experiment [1] has as its target T2, Type-1 angiotensin II receptor (Homo sapiens, UniProt P30556).
T2 sequence (P30556 whole entry): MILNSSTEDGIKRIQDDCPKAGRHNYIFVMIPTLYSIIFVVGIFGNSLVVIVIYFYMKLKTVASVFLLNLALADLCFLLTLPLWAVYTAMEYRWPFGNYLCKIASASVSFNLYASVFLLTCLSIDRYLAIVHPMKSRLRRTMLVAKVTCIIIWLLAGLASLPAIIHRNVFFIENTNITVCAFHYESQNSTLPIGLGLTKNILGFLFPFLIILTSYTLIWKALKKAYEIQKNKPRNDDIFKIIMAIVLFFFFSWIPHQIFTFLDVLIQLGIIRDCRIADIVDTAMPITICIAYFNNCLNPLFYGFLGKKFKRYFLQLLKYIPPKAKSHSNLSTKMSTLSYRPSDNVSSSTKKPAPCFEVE

The target in another experiment is Vasopressin V1a receptor (Homo sapiens, UniProt P37288).
Vasopressin V1a receptor, sequence (P37288 whole entry): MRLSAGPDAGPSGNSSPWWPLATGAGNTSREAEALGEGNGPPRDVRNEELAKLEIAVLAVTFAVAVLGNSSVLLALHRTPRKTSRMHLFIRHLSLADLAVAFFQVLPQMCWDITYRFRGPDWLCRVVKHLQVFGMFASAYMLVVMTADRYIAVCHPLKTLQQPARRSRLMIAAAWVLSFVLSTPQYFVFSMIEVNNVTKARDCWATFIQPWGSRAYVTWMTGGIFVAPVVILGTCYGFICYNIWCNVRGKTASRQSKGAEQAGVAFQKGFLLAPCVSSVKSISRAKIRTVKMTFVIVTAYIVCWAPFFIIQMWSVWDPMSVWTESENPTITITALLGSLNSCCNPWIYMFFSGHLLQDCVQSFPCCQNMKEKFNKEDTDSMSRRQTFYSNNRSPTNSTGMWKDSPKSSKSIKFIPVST
The next experiment deals with D(1A) dopamine receptor (Homo sapiens, UniProt P21728). It counts as functional, cell-based.
D(1A) dopamine receptor, sequence (P21728 whole entry): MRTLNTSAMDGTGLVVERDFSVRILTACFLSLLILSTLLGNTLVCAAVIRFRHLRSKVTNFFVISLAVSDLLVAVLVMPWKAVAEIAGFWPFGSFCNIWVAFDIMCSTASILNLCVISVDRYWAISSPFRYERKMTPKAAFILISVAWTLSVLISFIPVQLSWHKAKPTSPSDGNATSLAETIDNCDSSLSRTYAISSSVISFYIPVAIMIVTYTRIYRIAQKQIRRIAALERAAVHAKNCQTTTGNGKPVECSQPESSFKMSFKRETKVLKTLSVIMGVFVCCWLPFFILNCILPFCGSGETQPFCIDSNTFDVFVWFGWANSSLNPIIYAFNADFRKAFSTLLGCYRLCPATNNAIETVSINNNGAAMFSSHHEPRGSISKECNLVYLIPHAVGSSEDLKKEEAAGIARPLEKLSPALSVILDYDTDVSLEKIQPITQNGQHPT
The target of experiment [2] is 5-hydroxytryptamine receptor 2B (Homo sapiens, UniProt P41595). It counts as functional, cell-based.
5-hydroxytryptamine receptor 2B, sequence (P41595 whole entry): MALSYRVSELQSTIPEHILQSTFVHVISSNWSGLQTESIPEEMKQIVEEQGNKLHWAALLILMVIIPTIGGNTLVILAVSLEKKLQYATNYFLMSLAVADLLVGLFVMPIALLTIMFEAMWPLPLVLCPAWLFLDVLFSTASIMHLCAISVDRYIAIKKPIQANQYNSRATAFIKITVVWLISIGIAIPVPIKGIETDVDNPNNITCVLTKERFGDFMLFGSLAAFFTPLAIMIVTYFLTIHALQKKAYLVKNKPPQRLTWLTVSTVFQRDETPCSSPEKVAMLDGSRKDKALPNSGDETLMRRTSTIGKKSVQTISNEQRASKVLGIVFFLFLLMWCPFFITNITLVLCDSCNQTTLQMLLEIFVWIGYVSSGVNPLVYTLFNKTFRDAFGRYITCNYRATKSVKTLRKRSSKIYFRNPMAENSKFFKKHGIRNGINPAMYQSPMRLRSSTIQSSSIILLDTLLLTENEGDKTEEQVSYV
For experiment [3], the target named is T3, 5-hydroxytryptamine receptor 2C (Homo sapiens, UniProt P28335).
T3 sequence (P28335 whole entry): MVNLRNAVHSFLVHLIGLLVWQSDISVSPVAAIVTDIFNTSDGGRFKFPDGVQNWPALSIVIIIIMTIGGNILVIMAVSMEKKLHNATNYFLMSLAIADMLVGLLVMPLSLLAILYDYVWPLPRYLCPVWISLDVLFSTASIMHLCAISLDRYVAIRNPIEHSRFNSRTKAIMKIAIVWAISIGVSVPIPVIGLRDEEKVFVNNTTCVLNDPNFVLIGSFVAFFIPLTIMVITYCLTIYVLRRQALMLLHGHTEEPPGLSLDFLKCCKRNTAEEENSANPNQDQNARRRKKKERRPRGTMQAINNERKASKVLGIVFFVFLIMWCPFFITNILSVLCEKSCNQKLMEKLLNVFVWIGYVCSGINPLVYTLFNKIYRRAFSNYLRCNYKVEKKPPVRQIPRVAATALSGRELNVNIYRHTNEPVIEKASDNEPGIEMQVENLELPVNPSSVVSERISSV

The next experiment addresses Melanocortin receptor 3 (Homo sapiens, UniProt P41968).
Experiment [4] addresses T4, Neuropeptide Y receptor type 1 (Homo sapiens, UniProt P25929).
T4 sequence (P25929 whole entry): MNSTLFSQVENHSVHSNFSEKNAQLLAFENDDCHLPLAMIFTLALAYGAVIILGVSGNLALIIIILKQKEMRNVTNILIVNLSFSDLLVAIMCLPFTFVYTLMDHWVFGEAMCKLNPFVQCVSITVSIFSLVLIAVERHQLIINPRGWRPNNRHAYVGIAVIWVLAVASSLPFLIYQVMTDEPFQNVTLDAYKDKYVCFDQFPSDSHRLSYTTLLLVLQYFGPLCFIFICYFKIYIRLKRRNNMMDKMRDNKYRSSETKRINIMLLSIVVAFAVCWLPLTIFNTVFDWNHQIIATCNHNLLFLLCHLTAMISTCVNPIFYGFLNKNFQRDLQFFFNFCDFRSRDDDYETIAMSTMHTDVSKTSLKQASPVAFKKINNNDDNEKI

Experiment [5] deals with T5, Equilibrative nucleoside transporter 1 (Homo sapiens, UniProt Q99808).
T5 sequence (Q99808 whole entry): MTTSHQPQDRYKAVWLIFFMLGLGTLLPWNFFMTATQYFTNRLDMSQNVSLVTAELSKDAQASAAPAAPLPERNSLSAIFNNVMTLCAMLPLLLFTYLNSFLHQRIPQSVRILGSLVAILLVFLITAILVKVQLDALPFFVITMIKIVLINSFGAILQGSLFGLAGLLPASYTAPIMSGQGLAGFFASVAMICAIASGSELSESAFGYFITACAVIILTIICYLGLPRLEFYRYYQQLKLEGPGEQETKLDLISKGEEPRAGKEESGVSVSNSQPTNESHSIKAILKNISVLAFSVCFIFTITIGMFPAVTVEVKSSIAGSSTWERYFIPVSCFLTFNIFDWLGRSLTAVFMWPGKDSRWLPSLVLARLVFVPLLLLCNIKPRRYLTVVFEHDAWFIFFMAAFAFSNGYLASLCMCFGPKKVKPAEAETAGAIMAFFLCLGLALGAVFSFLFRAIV

Experiment [6] concerns the target Sodium-dependent noradrenaline transporter (Homo sapiens, UniProt P23975).

*1 amine or outer side, *2 acyl side, *3 side chain or, on linkers, in order; H or OH if unused. Where a SMILES comes first, the peptide text is derived from it. Bridges are numbered along the chain shown (N, C = ends). [ ]: non-standard residue; d: D form. The star is where a group is joined. hTyr(3S-OH,4S-OH,3'-OSO3H) = N[C@H](C(=O)O)[C@H](O)[C@@H](O)c1ccc(O)c(OS(=O)(=O)O)c1; Orn(4R-OH,5R-OH) = O=C([C@H](C[C@@H](O)[C@@H](O)N[*:3])N[*:1])[*:2]; Pro(3S-OH,4S-Me) = C[C@H]1CN[C@H](C(=O)O)[C@H]1O; X1 = CCCCCOc1ccc(-c2cc(-c3ccc(C(=O)*)cc3)no2)cc1; Gln(3R-OH) = NC(=O)C[C@@H](O)[C@H](N)C(=O)O; Hyp = O=C(O)[C@@H]1C[C@@H](O)CN1 Some results are limits rather than exact numbers.

One may read the AC50 as the concentration giving half of the maximal activity seen. Read a high AC50 as weaker potency.
Further: assay procedure not described here.

Sodium-dependent noradrenaline transporter, sequence (P23975 whole entry): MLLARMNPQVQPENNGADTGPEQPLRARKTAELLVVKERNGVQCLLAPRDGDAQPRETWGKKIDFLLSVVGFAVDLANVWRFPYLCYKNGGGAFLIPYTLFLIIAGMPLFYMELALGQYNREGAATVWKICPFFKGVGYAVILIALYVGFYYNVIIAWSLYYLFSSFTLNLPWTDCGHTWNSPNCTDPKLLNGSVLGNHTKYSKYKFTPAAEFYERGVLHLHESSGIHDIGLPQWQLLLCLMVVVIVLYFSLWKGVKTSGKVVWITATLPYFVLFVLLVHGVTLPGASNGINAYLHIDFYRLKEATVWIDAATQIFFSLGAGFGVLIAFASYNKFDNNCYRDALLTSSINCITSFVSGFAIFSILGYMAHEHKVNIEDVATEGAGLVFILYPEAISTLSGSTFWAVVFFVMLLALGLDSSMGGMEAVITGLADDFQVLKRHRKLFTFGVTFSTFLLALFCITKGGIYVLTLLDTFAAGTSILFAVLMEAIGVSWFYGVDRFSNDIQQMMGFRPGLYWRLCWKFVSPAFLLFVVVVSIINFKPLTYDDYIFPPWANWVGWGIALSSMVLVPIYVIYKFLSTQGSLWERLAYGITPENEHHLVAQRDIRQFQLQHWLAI
Melanocortin receptor 3, sequence (P41968 whole entry): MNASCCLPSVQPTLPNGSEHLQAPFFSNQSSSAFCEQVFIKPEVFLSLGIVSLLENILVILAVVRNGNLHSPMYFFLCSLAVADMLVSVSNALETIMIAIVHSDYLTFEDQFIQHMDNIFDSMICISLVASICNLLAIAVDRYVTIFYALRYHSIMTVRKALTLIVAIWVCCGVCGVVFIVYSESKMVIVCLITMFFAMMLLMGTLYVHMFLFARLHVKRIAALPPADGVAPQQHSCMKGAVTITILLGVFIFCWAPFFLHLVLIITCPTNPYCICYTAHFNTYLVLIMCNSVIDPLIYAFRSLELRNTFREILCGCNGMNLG

For the molecule `CN1CCC[C@@H]1Cc1c[nH]c2ccc(CCS(=O)(=O)c3ccccc3)cc12`, the AC50 at Progesterone receptor is above 30 µM.

`O=C(Nc1cccc2c(=O)cc(-c3nnn[nH]3)oc12)c1ccc(OCCCCc2ccccc2)cc1` came in with an AC50 at Progesterone receptor of 6.23 µM.

Regarding `NC(=O)c1nc(F)c[nH]c1=O`, the AC50 at Progesterone receptor was above 30 µM.

Take `CN(C)CCCN1C(=O)c2cc([N+](=O)[O-])ccc2Oc2ccccc21`: the AC50 at Progesterone receptor is above 30 µM.

Molecule `O=S(=O)(O)CCS` [2-MERCAPTOETHANESULFONIC ACID] displayed an AC50 on Progesterone receptor above 30 µM.

Regarding `O=C(O)COc1nn(Cc2ccccc2)c2ccccc12` [BENDAZAC], on Progesterone receptor, the AC50 was above 30 µM.

`Cc1ccc([C@@H]2O[C@H](CO)[C@@H](O)[C@H](O)[C@H]2O)cc1Cc1ccc(-c2ccc(F)cc2)s1` [CANAGLIFLOZIN ANHYDROUS] came in with an AC50 on Progesterone receptor above 30 µM.

Take `O=C(O)CCCc1ccc(N(CCCl)CCCl)cc1` [CHLORAMBUCIL]: the AC50 at Progesterone receptor was above 30 µM.

On to `CN(C)CCN(Cc1ccc(Cl)cc1)c1ccccn1` [CHLOROPYRAMINE], for which the AC50 on Progesterone receptor is above 30 µM.

Molecule `O=C(O)c1cc(=O)c2ccccc2o1` [CHROMOCARB] displayed an AC50 at Progesterone receptor above 30 µM.

As to `CN(CC(=O)O)C(=N)N` [CREATINE], on Progesterone receptor, the AC50 is above 30 µM.

Molecule `N[C@@H](CSSC[C@H](N)C(=O)O)C(=O)O` [CYSTINE] came in with an AC50 at Progesterone receptor above 30 µM.

As for `Cn1c(=O)c2c(ncn2CC(O)CO)n(C)c1=O` (centres undefined) [DYPHYLLINE], the AC50 on Progesterone receptor is above 30 µM.

In turn, `C[C@]12CC[C@@H]3c4ccc(O)cc4CC[C@H]3[C@@H]1CC[C@@H]2OC(=O)CCC1CCCC1` [ESTRADIOL CYPIONATE] came in with an AC50 on Progesterone receptor of 1.65 µM.

`CC1(C)O[C@@H]2C[C@H]3[C@@H]4CCC5=CC(=O)CC[C@]5(C)[C@@]4(F)[C@@H](O)C[C@]3(C)[C@]2(C(=O)CCl)O1` [HALCINONIDE] came in with an AC50 at Progesterone receptor of 0.003 µM.

Molecule `C[C@]12CCC(=O)C=C1CC[C@@H]1[C@@H]2[C@@H](O)C[C@@]2(C)[C@H]1CC[C@]2(O)C(=O)COC(=O)CCC(=O)O` [HYDROCORTISONE HEMISUCCINATE ANHYDROUS] gave an AC50 at Progesterone receptor above 30 µM.

For the molecule `N=C(N)NCc1cccc([123I])c1` [IOBENGUANE I 123], the AC50 at Progesterone receptor is above 30 µM.

Regarding `CC(C)(N)C(=O)N[C@H](Cc1c[nH]c2ccccc12)C(=O)N[C@H](Cc1c[nH]c2ccccc12)NC=O` [MACIMORELIN], on Progesterone receptor, the AC50 was above 30 µM.

In turn, `C=C1c2c(Cl)ccc(O)c2C(=O)C2=C(O)[C@]3(O)C(=O)C(C(N)=O)=C(O)[C@@H](N(C)C)[C@@H]3[C@@H](O)[C@H]12` [MECLOCYCLINE] returned a concentration at half-maximal activity (AC50) at Progesterone receptor above 30 µM.

`Cc1cc2c(OCC(O)CNC(C)C)cccc2[nH]1` (centres undefined) [MEPINDOLOL] returned an AC50 on Progesterone receptor above 30 µM.

The molecule `CCCCCOc1ccc(-c2cc(-c3ccc(C(=O)N[C@H]4C[C@@H](O)[C@@H](O)NC(=O)[C@@H]5[C@@H](O)[C@@H](C)CN5C(=O)[C@H]([C@H](O)CC(N)=O)NC(=O)[C@H]([C@H](O)[C@@H](O)c5ccc(O)c(OS(=O)(=O)O)c5)NC(=O)[C@@H]5C[C@@H](O)CN5C(=O)[C@H]([C@@H](C)O)NC4=O)cc3)no2)cc1` [MICAFUNGIN] (X1-[Orn(4R-OH,5R-OH)]T[Hyp][hTyr(3S-OH,4S-OH,3'-OSO3H)][Gln(3R-OH)][Pro(3S-OH,4S-Me)]; lactam 1-C) displayed an AC50 at Progesterone receptor of 3.87 µM.

At Progesterone receptor, `CCOc1cc(N)c(Cl)cc1C(=O)NCC1CN(Cc2ccc(F)cc2)CCO1` (centres undefined) [MOSAPRIDE] displayed an AC50 above 30 µM.

As for `CCOc1ccc2ccccc2c1C(=O)N[C@@H]1C(=O)N2[C@@H]1SC(C)(C)[C@@H]2C(=O)O` [NAFCILLIN], the AC50 on Progesterone receptor is above 30 µM.

`CN1CCC[C@H]1c1cccnc1` [NICOTINE]: the half-maximal activity concentration (AC50) at Progesterone receptor was above 30 µM.

Turning to `COc1ccnc(C[S+]([O-])c2nc3ccc(OC(F)F)cc3[nH]2)c1OC` (centres undefined) [PANTOPRAZOLE], the half-maximal activity concentration (AC50) in [1] is above 30 µM; on Vasopressin V1a receptor, above 10 µM; on D(1A) dopamine receptor it was above 10 µM; in experiment [2] it was above 10 µM; in [3], above 30 µM; at Melanocortin receptor 3, above 30 µM. In addition, the results for the AC50 in [4], in [5] and in experiment [6] were above 30 µM, above 30 µM and above 10 µM, respectively.

`O=C1NC(=O)C(c2ccccc2)(c2ccccc2)N1` [PHENYTOIN]: the AC50 (in experiment [1]; at Vasopressin V1a receptor; on D(1A) dopamine receptor; in [2]; in experiment [3]; at Melanocortin receptor 3) was above 30 µM throughout. Also, the AC50 in experiment [4], in experiment [5] and in experiment [6] was above 30 µM each time.

With `CC(C)C[C@H](CN)CC(=O)O` [PREGABALIN], the AC50 (in experiment [1]; on Vasopressin V1a receptor; on D(1A) dopamine receptor; in experiment [2]; in experiment [3]; at Melanocortin receptor 3) was above 30 µM each time. The AC50 in experiment [4], in experiment [5] and in experiment [6] was above 30 µM each time.

On to `CC(=O)S[C@@H]1CC2=CC(=O)CC[C@]2(C)[C@H]2CC[C@@]3(C)[C@@H](CC[C@@]34CCC(=O)O4)[C@H]12` [SPIRONOLACTONE], for which the AC50 in [1] was above 30 µM; on Vasopressin V1a receptor it was above 30 µM; on D(1A) dopamine receptor, above 30 µM; in experiment [2], 29 µM; in experiment [3], above 30 µM; on Melanocortin receptor 3 it was above 30 µM. Moreover, the AC50 in experiment [4], in [5] and in experiment [6] was above 30 µM each time.

For the molecule `Cc1cc(CC(=O)O)n(C)c1C(=O)c1ccc(Cl)cc1` [ZOMEPIRAC], the AC50 (in experiment [1]; on Vasopressin V1a receptor; at D(1A) dopamine receptor; in experiment [2]; in [3]; on Melanocortin receptor 3) was above 30 µM each time. In addition, the AC50 in experiment [4], in [5] and in [6] was above 30 µM each time.
